Measurements taken from patent US12139492B2 (Endotarget Inc., priority 2021, dated 2024).
Like-named read-outs stand apart in the source and are kept apart here.

Experiments:
[1] = biological target: BTK (Homo sapiens, UniProt Q06187); assay: Degradation of BTK protein in Namalwa cells (Western blot; DC50, Dmax); conditions: for degradation of BTK protein: Namalwa B lymphocyte cells, various concentrations, 24 hours, Western blot; for DC50: cell line not given
[2] = tested on: Mino cells; assay: Antiproliferative effect, MTS cell viability assay, Mino cells; format: cell-based; conditions: Homo sapiens, MINO, Mino mantle cell lymphoma cells; read-out: IC50 (anti-proliferation) Mino cells
In short: (§1)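 Tested at six concentrations (0 to 10 μM in tenfold steps), 72 h; viability by MTS, A490.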

[3] = tested on: JeKo-1 cells; assay: Antiproliferative effect, MTS cell viability assay, JeKo-1 cells; format: cell-based; conditions: Homo sapiens; JeKo-1 mantle cell lymphoma cells; read-out: IC50 (anti-proliferation) JeKO-1 cells
In short: as §1

[4] = read-out: DC50 (BTK degradation), concentration giving 50% reduction of BTK expression level
[5] = read-out: Dmax (BTK degradation)

Chain of BTK (Q06187 whole entry): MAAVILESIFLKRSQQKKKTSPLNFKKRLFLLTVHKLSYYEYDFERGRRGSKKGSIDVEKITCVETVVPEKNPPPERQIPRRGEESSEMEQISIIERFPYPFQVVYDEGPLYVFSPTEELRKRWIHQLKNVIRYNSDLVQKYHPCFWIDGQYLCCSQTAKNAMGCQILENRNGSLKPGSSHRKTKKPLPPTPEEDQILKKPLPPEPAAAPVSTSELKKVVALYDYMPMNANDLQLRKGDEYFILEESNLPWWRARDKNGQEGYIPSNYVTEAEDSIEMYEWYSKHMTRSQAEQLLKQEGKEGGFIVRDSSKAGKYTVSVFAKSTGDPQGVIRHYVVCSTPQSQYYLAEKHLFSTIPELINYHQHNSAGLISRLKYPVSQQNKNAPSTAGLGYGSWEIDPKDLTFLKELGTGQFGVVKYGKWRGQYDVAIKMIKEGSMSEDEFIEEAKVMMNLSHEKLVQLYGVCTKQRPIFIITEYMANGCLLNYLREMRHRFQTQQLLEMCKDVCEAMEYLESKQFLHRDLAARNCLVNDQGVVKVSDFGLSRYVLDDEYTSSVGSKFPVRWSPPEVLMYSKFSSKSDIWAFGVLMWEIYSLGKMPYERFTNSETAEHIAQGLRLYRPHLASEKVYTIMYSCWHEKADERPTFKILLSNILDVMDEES

For `Nc1ncnc2c1c(-c1ccc(Oc3ccccc3)cc1)nn2C1CCN(CC2CCN(CC3CCN(c4ccc5c(c4)C(=O)N(C4CCC(=O)NC4=O)C5=O)C3)C2)CC1` (centres unmarked) [Compound 447, 5-(3-((3-((4-(4-amino-3-(4-phenoxyphenyl)-1H-pyrazolo(3,4-d)pyrimidin-1-yl)piperidin-1-yl)methyl)pyrrolidin-1-yl)methyl)pyrrolidin-1-yl)-2-(2,6-dioxopiperidin-3-yl)isoindoline-1,3-dione], the “degradation of BTK protein” value [1] was “dose-dependent degradation”, the DC50 [1, 4] was 0.01 to 0.05 µM and the Dmax [1, 5] was > 90%. It also gave an IC50 [2] of 1 to 10 µM and an IC50 [3] of 1 to 10 µM.

With `Nc1ncnc2c1c(-c1ccc(Oc3ccccc3)cc1)nn2C1CCN(C2CCN(CC3CCN(CC4CN(c5ccc6c(c5)CN(C5CCC(=O)NC5=O)C6=O)C4)CC3)CC2)CC1` (centres unmarked) [Compound 436, 3-(5-(3-((4-((4-(4-amino-3-(4-phenoxyphenyl)-1H-pyrazolo[3,4-d]pyrimidin-1-yl)-[1,4′-bipiperidin]-1′-yl)methyl)piperidin-1-yl)methyl)azetidin-1-yl)-1-oxoisoindolin-2-yl)piperidine-2,6-dione] the DC50 [1, 4] was < 0.01 µM, the Dmax [1, 5] was > 90% and the IC50 [2] was < 1 µM. It also gave an IC50 [3] of 1 to 10 µM.

With `Nc1ncnc2c1c(-c1ccc(Oc3ccccc3)cc1)nn2C1CCN(C2CCN(CC3CCN(c4ccc5c(c4)CN(C4CCC(=O)NC4=O)C5=O)C3)C2)CC1` (centres unmarked) [Compound 452, 3-(5-(3-((3-(4-(4-amino-3-(4-phenoxyphenyl)-1H-pyrazolo[3,4-d]pyrimidin-1-yl)piperidin-1-yl)pyrrolidin-1-yl)methyl)pyrrolidin-1-yl)-1-oxoisoindolin-2-yl)piperidine-2,6-dione] the DC50 [1, 4] was 0.01 to 0.05 µM, the Dmax [1, 5] was > 75% and the IC50 [2] was < 1 µM. The IC50 [3] was 1 to 10 µM.

`Nc1ncnc2c1c(-c1ccc(Oc3ccccc3)cc1)nn2C1CCN(C(=O)NCCN2CCN(c3ccc4c(c3)CN(C3CCC(=O)NC3=O)C4=O)CC2)CC1` (centres unmarked) [Compound 521, 4-(4-amino-3-(4-phenoxyphenyl)-1H-pyrazolo[3,4-d]pyrimidin-1-yl)-N-(2-(4-(2-(2,6-dioxopiperidin-3-yl)-1-oxoisoindolin-5-yl)piperazin-1-yl)ethyl)piperidine-1-carboxamide] was tested, and the DC50 [1, 4] was < 0.01 µM, the Dmax [1, 5] was > 90% and the IC50 [2] was < 1 µM. The IC50 [3] was < 1 µM.

For `Nc1ncnc2c1c(-c1ccc(Oc3ccccc3)cc1)nn2C1CCN(C2CCN(C(=O)N3CCC(CCN4CCN(c5ccc6c(c5)C(=O)N(C5CCC(=O)NC5=O)C6=O)CC4)CC3)CC2)CC1` (centres unmarked) [Compound 251, 5-(4-(2-(1-(4-(4-amino-3-(4-phenoxyphenyl)-1H-pyrazolo[3,4-d]pyrimidin-1-yl)-[1,4′-bipiperidine]-1′-carbonyl)piperidin-4-yl)ethyl)piperazin-1-yl)-2-(2,6-dioxopiperidin-3-yl)isoindoline-1,3-dione], the Dmax [1] was > 90%, the DC50 ([1]; BTK degradation) was 0.01 to 0.05 µM and the IC50 [2] was < 1 µM. The IC50 [3] was 1 to 10 µM.

For `Nc1ncnc2c1c(-c1ccc(Oc3ccccc3)cc1)nn2C1CCN(C(=O)N2CC(N3CCN(c4ccc5c(c4)C(=O)N([C@@H]4CCC(=O)NC4=O)C5=O)CC3)C2)CC1` [Compound 485, (R)-5-(4-(1-(4-(4-amino-3-(4-phenoxyphenyl)-1H-pyrazolo[3,4-d]pyrimidin-1-yl)piperidine-1-carbonyl)azetidin-3-yl)piperazin-1-yl)-2-(2,6-dioxopiperidin-3-yl)isoindoline-1,3-dione], the DC50 [1, 4] was < 0.01 µM, the Dmax [1, 5] was > 90% and the IC50 [2] was < 1 µM. The IC50 [3] was < 1 µM.

`Nc1ncnc2c1c(-c1ccc(Oc3ccccc3)cc1)nn2C1CCN(C2CCN(C(=O)N3CCN(CC4CCN(c5ccc6c(c5)C(=O)N(C5CCC(=O)NC5=O)C6=O)CC4)CC3)CC2)CC1` (centres unmarked) [Compound 241, 5-(4-((4-(4-(4-amino-3-(4-phenoxyphenyl)-1H-pyrazolo[3,4-d]pyrimidin-1-yl)-[1,4′-bipiperidine]-1′-carbonyl)piperazin-1-yl)methyl)piperidin-1-yl)-2-(2,6-dioxopiperidin-3-yl)isoindoline-1,3-dione] was tested, and the Dmax [1] was > 90%, the DC50 ([1]; BTK degradation) was 0.01 to 0.05 µM and the IC50 [2] was 1 to 10 µM. It also gave an IC50 [3] of 1 to 10 µM.

`NC1=NC=NC2C1C(c1ccc(Oc3ccccc3)cc1)=NN2C1CCN(C2CN(C(=O)N3CC(C4CN(c5ccc6c(c5)CN(C5CCC(=O)NC5=O)C6=O)C4)C3)C2)CC1` (centres unmarked) [Compound 500, 3-(5-(1′-(3-(4-(4-amino-3-(4-phenoxyphenyl)-3a,7a-dihydro-1H-pyrazolo[3,4-d]pyrimidin-1-yl)piperidin-1-yl)azetidine-1-carbonyl)-[3,3′-biazetidin]-1-yl)-1-oxoisoindolin-2-yl)piperidine-2,6-dione] was tested, and the DC50 [1, 4] was 0.01 to 0.05 µM, the Dmax [1, 5] was > 90% and the IC50 [2] was < 1 µM. For the same molecule, the IC50 [3] was 1 to 10 µM.

With `Nc1ncnc2c1c(-c1ccc(Oc3ccccc3)cc1)nn2C1CCN(CCN2CCC(N3CCN(c4ccc5c(c4)CN(C4CCC(=O)NC4=O)C5=O)CC3)CC2)CC1` (centres unmarked) [Compound 458, 3-(5-(4-(1-(2-(4-(4-amino-3-(4-phenoxyphenyl)-1H-pyrazolo[3,4-d]pyrimidin-1-yl)piperidin-1-yl)ethyl)piperidin-4-yl)piperazin-1-yl)-1-oxoisoindolin-2-yl)piperidine-2,6-dione] the DC50 [1, 4] was > 0.05 µM, the Dmax [1, 5] was > 50% and the IC50 [2] was 1 to 10 µM. The IC50 [3] was 1 to 10 µM.

In the case of `Nc1ncnc2c1c(-c1ccc(Oc3ccccc3)cc1)nn2C1CCN(CC2CCN(CCCN3CCC(c4ccc5c(c4)C(=O)N(C4CCC(=O)NC4=O)C5=O)CC3)CC2)CC1` (centres unmarked) [Compound 209, 5-(1-(3-(4-((4-(4-amino-3-(4-phenoxyphenyl)-1H-pyrazolo[3,4-d]pyrimidin-1-yl)piperidin-1-yl)methyl)piperidin-1-yl)propyl)piperidin-4-yl)-2-(2,6-dioxopiperidin-3-yl)isoindoline-1,3-dione], the Dmax [1] is reported as > 75%, the DC50 ([1]; BTK degradation) is reported as 0.01 to 0.05 µM and the IC50 [2] is reported as > 10 µM. For the same molecule, the IC50 [3] was > 10 µM.

With `NC(=O)c1c(-c2ccc(Oc3ccccc3)cc2)nn2c1NCC[C@H]2C1CCN(C(=O)N2CCC(CN3CCC(c4ccc5c(c4)C(=O)N(C4CCC(=O)NC4=O)C5=O)CC3)CC2)CC1` (stereo partly drawn) [Compound 295, (7S)-7-(1-(4-((4-(2-(2,6-dioxopiperidin-3-yl)-1,3-dioxoisoindolin-5-yl)piperidin-1-yl)methyl)piperidine-1-carbonyl)piperidin-4-yl)-2-(4-phenoxyphenyl)-4,5,6,7-tetrahydropyrazolo[1,5-a]pyrimidine-3-carboxamide] the Dmax [1] was > 90%, the DC50 ([1]; BTK degradation) was 0.01 to 0.05 µM and the IC50 [2] was < 1 µM. The IC50 [3] was 1 to 10 µM.

`Nc1ncnc2c1c(-c1ccc(Oc3ccccc3)cc1)nn2C1CCN(C2CCN(CC3CCN(c4ccc5c(c4)C(=O)N(C4CCC(=O)NC4=O)C5=O)C3)C2)CC1` (centres unmarked) [Compound 451, 5-(3-((3-(4-(4-amino-3-(4-phenoxyphenyl)-1H-pyrazolo[3,4-d]pyrimidin-1-yl)piperidin-1-yl)pyrrolidin-1-yl)methyl)pyrrolidin-1-yl)-2-(2,6-dioxopiperidin-3-yl)isoindoline-1,3-dione] was tested, and the “degradation of BTK protein” value [1] was “dose-dependent degradation”, the DC50 [1, 4] was < 0.01 µM and the Dmax [1, 5] was > 90%. The IC50 [2] was < 1 µM and the IC50 [3] was 1 to 10 µM.
